Data on 24 molecules can be found in patent publication US9695198B2, “Factor IXa inhibitors” (MERCK SHARP & DOHME CORP., priority 2012, dated 2017).

This assay addresses Factor IXa (Homo sapiens, UniProt P00740). In words: Determination of inhibitory activity against Factor IXa (cleavage of fluorescent peptide CH3SO2-D-CHG-Gly-Arg-AFC). Type of assay: biochemical. Conditions: Factor IXa Inhibition table; low enzyme format; read-out: FIXa Low Enzyme. On the procedure: Determination of Inhibitory Activity Against Factor IXa
Formation of a clot to stem bleeding at a site of blood vessel injury involves the coordinated activity of a group of plasma proteins that initiate and propagate fibrin formation and subsequently protect fibrin from premature degradation. Factor IX is a key component of the plasma system that forms a fibrin clot at a site of vascular injury. The activity of Factor IXa is measured by monitoring the cleavage of the fluorescent peptide, CH3SO2-D-CHG-Gly-Arg-AFC.AcOH (“CHG” is cyclohexyl-glycine and “AFC” is trifluoro aminomethyl coumarin). Factor IXa cleaves the amide bond between Arg and AFC, thereby releasing the AFC fluorophore. The free AFC can be detected with a fluorescence detector at an excitation wavelength of 405 nm and emission wavelength of 510 nm.

Chain of Factor IXa (P00740 227-461 limits assumed): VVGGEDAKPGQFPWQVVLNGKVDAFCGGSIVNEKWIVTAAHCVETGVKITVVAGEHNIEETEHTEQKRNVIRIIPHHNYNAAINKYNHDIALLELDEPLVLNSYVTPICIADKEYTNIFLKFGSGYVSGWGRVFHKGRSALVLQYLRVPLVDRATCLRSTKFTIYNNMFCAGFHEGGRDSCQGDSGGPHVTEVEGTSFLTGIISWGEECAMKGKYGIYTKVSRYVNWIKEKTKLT
Chain of Factor IXa (P00740 47-191 partner limits assumed): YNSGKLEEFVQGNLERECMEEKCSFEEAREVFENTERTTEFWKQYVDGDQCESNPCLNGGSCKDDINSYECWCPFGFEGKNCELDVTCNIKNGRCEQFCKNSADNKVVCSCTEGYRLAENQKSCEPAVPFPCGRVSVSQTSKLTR

Take `Nc1noc2c1ccc1[nH]c([C@H](O)[C@H]3OCCN(c4ccn(-c5ccncc5)n4)C3=O)nc(=O)c12` [Example 1, 3-Amino-7-((S)-hydroxy((R)-3-oxo-4-(1-(pyridin-4-yl)-1H-pyrazol-3-yl)morpholin-2-yl)methyl)isoxazolo[5,4-f]quinazolin-9(6H)-one]: the IC50 was found to be 14.5 nM.

Take `Nc1nsc2c1ccc1[nH]c([C@H](O)[C@H]3OCCN(c4ccn(-c5ccncc5)n4)C3=O)nc(=O)c12` [Example 2, (R)-2-((S)-(3-Amino-9-oxo-6,9-dihydroisothiazolo[5,4-f]quinazolin-7-yl)(hydroxy)methyl)-4-(1-(pyridin-4-yl)-1H-pyrazol-3-yl)morpholin-3-one]: the IC50 came to 4.65 nM.

On to `Cc1cc(N2CCO[C@H]([C@@H](O)c3nc(=O)c4c(ccc5c(N)nsc54)[nH]3)C2=O)nn1-c1ccncc1` [Example 3, (R)-2-((S)-(3-Amino-9-oxo-6,9-dihydroisothiazolo[5,4-f]quinazolin-7-yl)(hydroxy)methyl)-4-(5-methyl-1-(pyridin-4-yl)-1H-pyrazol-3-yl)morpholin-3-one], for which the IC50 was 11.3 nM.

In the case of `Cc1cc(N2CCO[C@H]([C@@H](O)c3nc(=O)c4c(ccc5c(N)nsc54)[nH]3)C2=O)nn1-c1cccnc1` [Example 4, (R)-2-((S)-(3-Amino-9-oxo-6,9-dihydroisothiazolo[5,4-f]quinazolin-7-yl)(hydroxy)methyl)-4-(5-methyl-1-(pyridin-3-yl)-1H-pyrazol-3-yl)morpholin-3-one], the IC50 is 58.6 nM.

`COc1cc(-n2ccc(N3CCO[C@H]([C@@H](O)c4nc(=O)c5c(ccc6c(N)nsc65)[nH]4)C3=O)n2)ccn1` [Example 5, (R)-2-((S)-(3-Amino-9-oxo-6,9-dihydroisothiazolo[5,4-f]quinazolin-7-yl)(hydroxy)methyl)-4-(1-(2-methoxypyridin-4-yl)-1H-pyrazol-3-yl)morpholin-3-one]: the IC50 was 10.8 nM.

For `COc1cc(-n2nc(N3CCO[C@H]([C@@H](O)c4nc(=O)c5c(ccc6c(N)nsc65)[nH]4)C3=O)cc2C)ccn1` [Example 6, (R)-2-((S)-(3-Amino-9-oxo-6,9-dihydroisothiazolo[5,4-f]quinazolin-7-yl)(hydroxy)methyl)-4-(1-(2-methoxypyridin-4-yl)-5-methyl-1H-pyrazol-3-yl)morpholin-3-one], the IC50 came out at 58.2 nM.

On to `Nc1nsc2c1ccc1[nH]c([C@H](O)[C@H]3OCCN(c4ccn(-c5ccnc(C(F)(F)F)c5)n4)C3=O)nc(=O)c12` [Example 7, (R)-2-((S)-(3-Amino-9-oxo-6,9-dihydroisothiazolo[5,4-f]quinazolin-7-yl)(hydroxy)methyl)-4-(1-(2-(trifluoromethyl)pyridin-4-yl)-1H-pyrazol-3-yl)morpholin-3-one], for which the IC50 is 9.37 nM.

Regarding `Cc1cc(N2CCO[C@H]([C@@H](O)c3nc(=O)c4c(ccc5c(N)nsc54)[nH]3)C2=O)nn1-c1ccnc(C(F)(F)F)c1` [Example 8, (R)-2-((S)-(3-Amino-9-oxo-6,9-dihydroisothiazolo[5,4-f]quinazolin-7-yl)(hydroxy)methyl)-4-(5-methyl-1-(2-(trifluoromethyl)pyridin-4-yl)-1H-pyrazol-3-yl)morpholin-3-one], the IC50 was found to be 17.8 nM.

Regarding `Nc1nsc2c1ccc1[nH]c([C@H](O)[C@H]3OCCN(c4ccn(-c5ccnnc5)n4)C3=O)nc(=O)c12` [Example 9, (R)-2-((S)-(3-Amino-9-oxo-6,9-dihydroisothiazolo[5,4-f]quinazolin-7-yl)(hydroxy)methyl)-4-(1-(pyridazin-4-yl)-1H-pyrazol-3-yl)morpholin-3-one], the IC50 came out at 1.87 nM.

Regarding `Nc1nsc2c1ccc1[nH]c([C@H](O)[C@H]3OCCN(c4ccn(-c5ccc(=O)n(C(F)F)c5)n4)C3=O)nc(=O)c12` [Example 10, (R)-2-((S)-(3-Amino-9-oxo-6,9-dihydroisothiazolo[5,4-f]quinazolin-7-yl)(hydroxy)methyl)-4-(1-(1-(difluoromethyl)-6-oxo-1,6-dihydropyridin-3-yl)-1H-pyrazol-3-yl)morpholin-3-one], the IC50 came to 3.04 nM.

In the case of `Cc1cc(N2CCO[C@H]([C@@H](O)c3nc(=O)c4c(ccc5c(N)nsc54)[nH]3)C2=O)nn1-c1ccc(F)cc1` [Example 11, (R)-2-((S)-(3-Amino-9-oxo-6,9-dihydroisothiazolo[5,4-f]quinazolin-7-yl)(hydroxy)methyl)-4-(1-(4-fluorophenyl)-5-methyl-1H-pyrazol-3-yl)morpholin-3-one], the IC50 came out at 52.1 nM.

Turning to `N#Cc1ccc(-n2ccc(N3CCO[C@H]([C@@H](O)c4nc(=O)c5c(ccc6c(N)nsc65)[nH]4)C3=O)n2)cc1` [Example 12, 4-(3-((R)-2-((S)-(3-Amino-9-oxo-6,9-dihydroisothiazolo[5,4-f]quinazolin-7-yl)(hydroxy)methyl)-3-oxomorpholino)-1H-pyrazol-1-yl)benzonitrile], the IC50 is 3.07 nM.

On to `N#Cc1ccc(-n2ccc(N3CCO[C@H]([C@@H](O)c4nc(=O)c5c(ccc6c(N)nsc65)[nH]4)C3=O)n2)cc1C(F)(F)F` [Example 13, 4-(3-((R)-2-((S)-(3-Amino-9-oxo-6,9-dihydroisothiazolo[5,4-f]quinazolin-7-yl)(hydroxy)methyl)-3-oxomorpholino)-1H-pyrazol-1-yl)-2-(trifluoromethyl)benzonitrile], for which the IC50 came out at 28.3 nM.

Turning to `Cc1cc(N2CCO[C@H]([C@@H](O)c3nc(=O)c4c(ccc5c(N)nsc54)[nH]3)C2=O)nn1C` [Example 14, (R)-2-((S)-(3-Amino-9-oxo-6,9-dihydroisothiazolo[5,4-f]quinazolin-7-yl)(hydroxy)methyl)-4-(1,5-dimethyl-1H-pyrazol-3-yl)morpholin-3-one], the IC50 worked out at 43.7 nM.

Turning to `Nc1nsc2c1ccc1[nH]c([C@H](O)[C@H]3OCCN(c4ccn(C5CC5)n4)C3=O)nc(=O)c12` [Example 15, (R)-2-((S)-(3-Amino-9-oxo-6,9-dihydroisothiazolo[5,4-f]quinazolin-7-yl)(hydroxy)methyl)-4-(1-cyclopropyl-1H-pyrazol-3-yl)morpholin-3-one], the IC50 turned out to be 39.8 nM.

For `Cc1cc(N2CCO[C@H]([C@@H](O)c3nc(=O)c4c(ccc5c(N)nsc54)[nH]3)C2=O)nn1C1CCOCC1` [Example 16, (R)-2-((S)-(3-Amino-9-oxo-6,9-dihydroisothiazolo[5,4-f]quinazolin-7-yl)(hydroxy)methyl)-4-(5-methyl-1-(tetrahydro-2H-pyran-4-yl)-1H-pyrazol-3-yl)morpholin-3-one], the IC50 came out at 31.9 nM.

Turning to `Nc1nsc2c1ccc1[nH]c([C@H](O)[C@H]3OCCN(c4cccc(C(F)(F)F)n4)C3=O)nc(=O)c12` [Example 17, (R)-2-((S)-(3-Amino-9-oxo-6,9-dihydroisothiazolo[5,4-f]quinazolin-7-yl)(hydroxy)methyl)-4-(6-(trifluoromethyl)pyridin-2-yl)morpholin-3-one], the IC50 was 43.7 nM.

With `Nc1nsc2c1ccc1[nH]c([C@H](O)[C@H]3OCCN(c4nc(C(F)(F)F)ccc4F)C3=O)nc(=O)c12` [Example 18, (R)-2-((S)-(3-Amino-9-oxo-6,9-dihydroisothiazolo[5,4-f]quinazolin-7-yl)(hydroxy)methyl)-4-(3-fluoro-6-(trifluoromethyl)pyridin-2-yl)morpholin-3-one], the IC50 was determined as 44.2 nM.

In the case of `Nc1nsc2c1ccc1[nH]c([C@H](O)[C@H]3OCCN(c4cccc(OC(F)F)n4)C3=O)nc(=O)c12` [Example 19, (R)-2-((S)-(3-Amino-9-oxo-6,9-dihydroisothiazolo[5,4-f]quinazolin-7-yl)(hydroxy)methyl)-4-(6-(difluoromethoxy)pyridin-2-yl)morpholin-3-one], the IC50 turned out to be 83.3 nM.

Consider `Nc1nsc2c1ccc1[nH]c([C@H](O)[C@H]3OCCN(c4cccc(C5CC5)n4)C3=O)nc(=O)c12` [Example 20, (R)-2-((S)-(3-Amino-9-oxo-6,9-dihydroisothiazolo[5,4-f]quinazolin-7-yl)(hydroxy)methyl)-4-(6-cyclopropylpyridin-2-yl)morpholin-3-one], for which the IC50 came out at 88.6 nM.

Consider `CC(C)(O)c1cccc(N2CCO[C@H]([C@@H](O)c3nc(=O)c4c(ccc5c(N)nsc54)[nH]3)C2=O)n1` [Example 21, (R)-2-((S)-(3-Amino-9-oxo-6,9-dihydroisothiazolo[5,4-f]quinazolin-7-yl)(hydroxy)methyl)-4-(6-(2-hydroxypropan-2-yl)pyridin-2-yl)morpholin-3-one], for which the IC50 turned out to be 12.3 nM.

As for `CC(C)(O)c1nc(N2CCO[C@H]([C@@H](O)c3nc(=O)c4c(ccc5c(N)nsc54)[nH]3)C2=O)ccc1C(F)(F)F` [Example 22, (R)-2-((S)-(3-Amino-9-oxo-6,9-dihydroisothiazolo[5,4-f]quinazolin-7-yl)(hydroxy)methyl)-4-(6-(2-hydroxypropan-2-yl)-5-(trifluoromethyl)pyridin-2-yl)morpholin-3-one], the IC50 was determined as 25.6 nM.

In the case of `CC(=O)OC1(c2cccc(N3CCO[C@H]([C@@H](O)c4nc(=O)c5c(ccc6c(N)nsc65)[nH]4)C3=O)n2)CCC1` [Example 23, 1-(6-((R)-2-((S)-(3-Amino-9-oxo-6,9-dihydroisothiazolo[5,4-f]quinazolin-7-yl)(hydroxy)methyl)-3-oxomorpholino)pyridin-2-yl)cyclobutyl acetate], the IC50 was 31.5 nM.

As for `Nc1nsc2c1ccc1[nH]c([C@H](O)[C@H]3OCCN(c4cccc(C5(O)CCC5)n4)C3=O)nc(=O)c12` [Example 24, (R)-2-((S)-(3-Amino-9-oxo-6,9-dihydroisothiazolo[5,4-f]quinazolin-7-yl)(hydroxy)methyl)-4-(6-(1-hydroxycyclobutyl)pyridin-2-yl)morpholin-3-one], the IC50 amounted to 24.8 nM.
